Measured values from patent US20250034165A1, “COMPOUND CONTAINING CYCLOALKYL OR HALOALKYL” (CHIA TAI TIANQING PHARMACEUTICAL GROUP CO., LTD., priority 2021, published 2025).
Like-named read-outs stand apart in the source and are kept apart here.

Legend:
[1] = In vitro stability in liver microsomes; format: in vitro ADME; settings: Human liver microsome
Description: 300 μL of the final incubation system contains 30 μL of liver microsomes (protein concentration: 0.15 mg/mL), 30 μL of NADPH+MgCl2, 3 μL of the test compound (in acetonitrile), and 237 μL of PBS buffer (pH 7.4). The proportion of the organic solvent (acetonitrile) was 1%. Samples were prepared in duplicate of 0.3 mL for each species (e.g., human or mouse liver microsomes). Tubes each containing 270 μL of a mixed solution of substrate and enzyme […] were pre-incubated at 37° C. for 5 min. 30 μL of NADPH+MgCl2 was added and the mixture was mixed. 50 μL of the mixture was taken at 0 min, 15 min, 30 min, and 60 min, and 300 μL of glacial acetonitrile containing an internal standard was added to terminate the reaction.
50 μL of the incubated sample was added with 300 μL of glacial acetonitrile containing an internal standard (20 ng/mL diazepam) for precipitation. The mixture was vortexed for 5 min, and centrifuged (12,000 rpm, 4° C.) for 10 min. 75 μL of supernatant was taken and diluted with 75 μL of ultrapure water. After being homogeneously mixed, 0.5 μL of the resulting sample was injected for analysis.

[2] = system: PC-9 EGFR-Del19-T790M-C797S cells; assay: Inhibition of proliferation of PC-9-EGFR (Del19 T790M C797S) cells, CCK-8; format: cell-based; settings: 72 h, read-out: PC-9-EGFR (Del19 T790M C797S) cell inhibitory activity IC50
Method in brief: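 Cells seeded at 2×10^4 cells/mL were treated 72 h with compound at 1000 nM-0.06 nM final, in replicate wells. CCK-8 absorbance at 450 nm after 2 h gave inhibition rate relative to negative control and blank. IC50 from four-parameter fit against log concentration.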

[3] = In vivo pharmacokinetics in ICR mice; settings: for MRT last: read-out: MRT(0-t); for half-life: read-out: T½ (converted); for bioavailability: 10 mg/kg
Method in brief: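 ICR mice (18–20 g, 9 per group, fasted 12 h) received 10 mg/kg of compound intragastrically. Orbital blood was taken from 0 min to 24 h and EDTA-K2 plasma was prepared. Plasma was precipitated with acetonitrile containing diazepam as internal standard and analysed by LC/MS/MS.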

[4] = mouse, plasma, 1 mg/kg, IV, read-out: AUC(0-t)
[5] = mouse, plasma, PO, 10 mg/kg intragastric
[6] = mouse, plasma, PO, 10 mg/kg intragastric, read-out: AUC(0-t)
[7] = mouse, plasma, PO, 10 mg/kg intragastric, read-out: Cmax
[8] = mouse, plasma, PO, 10 mg/kg intragastric, read-out: Tmax

| SMILES | Stability in liver microsomes (residual %, T = 60 min) [1] [%] | IC50 [2] [nM] | CLz ([3]; IV) [mL/min/kg] | AUC(0-inf) ([3]; mouse, plasma, 1 mg/kg, IV) [ng·h/mL] | AUC(0-t) [3, 4] [ng·h/mL] | MRT last ([3]; mouse, plasma, 1 mg/kg, IV) [h] | half-life ([3]; mouse, plasma, 1 mg/kg, IV) [h] | bioavailability ([3]; mouse, plasma, PO vs IV) [%] | AUC(0-inf) [3, 5] [ng·h/mL] | AUC(0-t) [3, 6] [ng·h/mL] | Cmax [3, 7] [ng/mL] | MRT last [3, 5] [h] | Tmax [3, 8] [h] | half-life [3, 5] [h] | also measured |
| --- | --- | --- | --- | --- | --- | --- | --- | --- | --- | --- | --- | --- | --- | --- | --- |
| C[C@H](Nc1ccc2c(c1)N/C1=N\C(=O)c3cc(F)nc(c3)-c3cnn(C)c3OCCC[C@@H](C3CC3)CN12)C(F)(F)F [Example 9] | 59.54 | – | – | – | – | – | – | – | – | – | – | – | – | – | – |
| Cc1cc2cc(n1)-c1cnn(C)c1OCCC[C@@H](C1CC1)CN1/C(=N/C2=O)Nc2cc(N[C@H]3CC[C@H](N(C)C)CC3)ccc21 [Example 25] | 103.07 | < 50 | – | – | – | – | – | – | – | – | – | – | – | – | – |
| Cc1cc2cc(n1)-c1cnn(C)c1OCCC[C@@H](C1CC1)CN1/C(=N/C2=O)Nc2cc(N[C@H]3CC[C@@H](N(C)C)CC3)ccc21 [Example 26] | 98.30 | < 50 | – | – | – | – | – | – | – | – | – | – | – | – | – |
| Cc1cc2cc(n1)-c1cnn(C)c1OCCC[C@@H](C1CC1)CN1/C(=N/C2=O)Nc2ccc(NCCN(C)C)cc21 [Example 28] | – | < 50 | 48.8 | 341 | 336 | 3.96 | 4.64 | 27.9 | 965 | 938 | 74.5 | 7.72 | 6 | 4.29 | – |
| Cc1cc2cc(n1)-c1cnn(C)c1OCCC[C@@H](C1CC1)CN1/C(=N/C2=O)Nc2cc(NC3(C)COC3)ccc21 [Example 29] | – | < 50 | 19.7 | 850 | 845 | 1.1 | 1.65 | 42.9 | 3640 | 3620 | 553 | 5.99 | 0.5 | 3.06 | – |
| Cc1cc2cc(n1)-c1cnn(C)c1OCCC[C@@H](C1CC1)CN1/C(=N/C2=O)Nc2cc(N[C@H](C)C3COC3)ccc21 [Example 39] | – | < 50 | 63.5 | – | – | – | – | – | – | – | – | – | – | – | AUC(0-t) ([3]; IV): 261 ng·h/mL; AUC(0-∞) ([3]; IV): 262 ng·h/mL; MRT(0-t) ([3]; IV): 0.61 h; T½ ([3]; IV): 1.74 h; F (%) ([3]; PO vs IV): 118.35%; AUC(0-t) ([3]; PO, 10 mg/kg intragastric): 3093 ng·h/mL; AUC(0-∞) ([3]; PO, 10 mg/kg intragastric): 3096 ng·h/mL; Cmax ([3]; PO, 10 mg/kg intragastric): 488 ng/mL; MRT(0-t) ([3]; PO, 10 mg/kg intragastric): 3.84 h; Tmax ([3]; PO, 10 mg/kg intragastric): 0.50 h; T½ ([3]; PO, 10 mg/kg intragastric): 2.33 h |
